Reference: patent US20220110882A1, “SYNTHETICALLY LETHAL NANOPARTICLES FOR TREATMENT OF CANCERS” (UNIVERSITY OF IOWA RESEARCH FOUNDATION, priority 2017, published 2022)

How the values were obtained:
GOF Hec50co cells = assay: BIBFs effect on NPs uptake using flow cytometry; type: cell-based, human; conditions: 1 μM BIBFs, 6 h, serum containing media
Experimental: (§1) BIBFs effect on NPs uptake using flow cytometry. The effect of BIBFs on the uptake of different RHDp against Hec50co cells and GOF Hec50co cells was tested. Both cell lines were plated at a seeding density of 10^5 cell/well in 12 well plate, and then the experiment was carried out as mentioned in section [00125]) with two exceptions: a) RHDp uptake was evaluated in the presence or absence of 1 μM BIBFs, b) the experiment was carried out in serum containing media to mimic the in vivo conditions.

Hec50co cells [1] = assay: BIBFs effect on NPs uptake using flow cytometry; type: cell-based, human; conditions: 1 μM BIBFs, 6 h, serum containing media
Experimental: as §1

Hec50co cells [2] = conditions: 5 mg/kg each IV on days 18, 25, 32
Experimental: In vivo efficacy studies using mouse xenograft model of LOF p53 USC. Female athymic NCI-nu/nu mice (Charles River, Wilmington, Mass.) at the age of 6-8 weeks were challenged subcutaneously with 2×10^6 Hec50co cells in the right flank after isoflurane anesthesia. […] Mice were 5 per group, except the group that received the combination therapy were 7. Treatments were administered TV through retro-orbital injections in the venous sinus on days 18, 25, and 32. The tumor diameters and height were measured using digital caliper. The tumor volumes were calculated from the following formula:
Where D1 is the first tumor diameter (mm), D2 is the second tumor diameter (mm), and H is the tumor height.
Mice weights were monitored during the experiment and mice were euthanized once the tumor diameter exceeded 2 cm or tumor height exceeded 1 cm. Sample sizes for this experiment were estimated based on preliminary data in order to have 80% power to detect significant differences between groups. All animal experiments were not blinded, and were carried out in accordance with guidelines and regulations approved by the University of Iowa Institutional Animal Care and Use Committee.

Structure (SMILES) | increase in fluorescence intensity on addition to RHDp (75/T) (GOF Hec50co cells) | increase in fluorescence intensity on addition to RHDp (75/T) (Hec50co cells [1]) | median survival (Hec50co cells [2])
COC(=O)c1ccc2c(c1)NC(=O)/C2=C(\Nc1ccc(N(C)C(=O)CN2CCN(C)CC2)cc1)c1ccccc1 [BIBFs, BIBF-1120] | 1.5 fold | 1.5 fold | 
CC(=O)O[C@H]1C(=O)[C@@]2(C)[C@H]([C@H](OC(=O)c3ccccc3)[C@]3(O)C[C@H](OC(=O)[C@H](O)[C@@H](NC(=O)c4ccccc4)c4ccccc4)C(C)=C1C3(C)C)[C@]1(OC(C)=O)CO[C@@H]1C[C@@H]2O [PTXs, paclitaxel] |  |  | 41 days
